Where a name gives a salt, the structure may show the parent alone.
Assays:
[1] = test system: cynomolgus monkey whole blood; assay: Hemolytic potential in cynomolgus monkey whole blood; type: cell-based; settings: 37 ° C. 30 minutes
Procedure: (§1) 1-DNJ-HCl was dissolved in sodium citrate buffer. 1-DNJ-HCl concentration was 30 mg/mL (resulting free 1-DNJ concentration was 25 mg/mL); sodium citrate buffer concentration was 50 mM at pH 5.0. 1-DNJ-HCl formulation was added to whole blood samples of male human, rat, and cynomolgus monkey. […]. Buffer served as a negative control, while Triton-X 100 (Lysing agent) served as a positive control. Additionally blood sample without any additions was used as a negative control. The samples were stored at 4° C. Blood samples were incubated at 37 ° C. for 30 minutes with the 1-DNJ-HCl formulation, after which the samples were centrifuged. The amount of hemoglobin in the supernatant from each centrifuged sample was measured using a commercially available hemoglobin assay kit (BioAssay Systems, QuantiChrom™ Hemoglobin Assay Kit) and the Tecan microplate reader.

[2] = test system: rat whole blood; assay: Hemolytic potential in rat whole blood; type: cell-based, Sprague Dawley rat; settings: 37 ° C. 30 minutes
Procedure: as §1

[3] = Osmolality of 1-DNJ-HCl in sodium citrate buffer by freezing point; type: physicochemical
Procedure: The molallity of 1-deoxynojirimycin chloride (1-DNJ-HCl) was determined by freezing point depreciation. 1-deoxynojirimycin chloride concentration ranged from 30 mg/mL to 60 mg/mL. Sodium citrate concentration ranged from 20 to 50 mM.

[4] = test system: human whole blood; assay: Hemolytic potential in human whole blood; type: cell-based; settings: 37 ° C. 30 minutes
Procedure: as §1

[5] = 500 μL blood mixed with 500 μL sample (30 mg/mL AT2220 or 0.1% Triton X-100)
[6] = 500 μL blood mixed with 500 μL sample, 30 mg/mL AT2220 dilution 1, 0.1% Triton X-100 dilution 100

- Osmolality ([3]; 1-DNJ-HCl 30 mg/mL, Sodium Citrate Buffer 20 mM): 311 mOsm/kg
- Osmolality ([3]; 1-DNJ-HCl 30 mg/mL, Sodium Citrate Buffer 25 mM): 327 mOsm/kg
- Osmolality ([3]; 1-DNJ-HCl 30 mg/mL, Sodium Citrate Buffer 30 mM): 343 mOsm/kg
- Osmolality ([3]; 1-DNJ-HCl 30 mg/mL, Sodium Citrate Buffer 35 mM): 358 mOsm/kg
- Osmolality ([3]; 1-DNJ-HCl 30 mg/mL, Sodium Citrate Buffer 40 mM): 374 mOsm/kg
- Osmolality ([3]; 1-DNJ-HCl 30 mg/mL, Sodium Citrate Buffer 45 mM): 389 mOsm/kg
- Osmolality ([3]; 1-DNJ-HCl 35 mg/mL, Sodium Citrate Buffer 20 mM): 353 mOsm/kg
- Osmolality ([3]; 1-DNJ-HCl 35 mg/mL, Sodium Citrate Buffer 25 mM): 369 mOsm/kg
- Osmolality ([3]; 1-DNJ-HCl 35 mg/mL, Sodium Citrate Buffer 30 mM): 384 mOsm/kg
- Osmolality ([3]; 1-DNJ-HCl 35 mg/mL, Sodium Citrate Buffer 35 mM): 400 mOsm/kg
- Osmolality ([3]; 1-DNJ-HCl 35 mg/mL, Sodium Citrate Buffer 40 mM): 415 mOsm/kg
- Osmolality ([3]; 1-DNJ-HCl 35 mg/mL, Sodium Citrate Buffer 45 mM): 431 mOsm/kg
- Osmolality ([3]; 1-DNJ-HCl 35 mg/mL, Sodium Citrate Buffer 50 mM): 447 mOsm/kg
- Osmolality ([3]; 1-DNJ-HCl 40 mg/mL, Sodium Citrate Buffer 20 mM): 394 mOsm/kg
- Osmolality ([3]; 1-DNJ-HCl 40 mg/mL, Sodium Citrate Buffer 25 mM): 410 mOsm/kg
- Osmolality ([3]; 1-DNJ-HCl 40 mg/mL, Sodium Citrate Buffer 30 mM): 426 mOsm/kg
- Osmolality ([3]; 1-DNJ-HCl 40 mg/mL, Sodium Citrate Buffer 35 mM): 441 mOsm/kg
- Osmolality ([3]; 1-DNJ-HCl 40 mg/mL, Sodium Citrate Buffer 40 mM): 457 mOsm/kg
- Osmolality ([3]; 1-DNJ-HCl 40 mg/mL, Sodium Citrate Buffer 45 mM): 472 mOsm/kg
- Osmolality ([3]; 1-DNJ-HCl 40 mg/mL, Sodium Citrate Buffer 50 mM): 488 mOsm/kg
- Osmolality ([3]; 1-DNJ-HCl 45 mg/mL, Sodium Citrate Buffer 20 mM): 436 mOsm/kg
- Osmolality ([3]; 1-DNJ-HCl 45 mg/mL, Sodium Citrate Buffer 25 mM): 452 mOsm/kg
- Osmolality ([3]; 1-DNJ-HCl 45 mg/mL, Sodium Citrate Buffer 30 mM): 467 mOsm/kg
- Osmolality ([3]; 1-DNJ-HCl 45 mg/mL, Sodium Citrate Buffer 35 mM): 483 mOsm/kg
- Osmolality ([3]; 1-DNJ-HCl 45 mg/mL, Sodium Citrate Buffer 40 mM): 498 mOsm/kg
- Osmolality ([3]; 1-DNJ-HCl 45 mg/mL, Sodium Citrate Buffer 45 mM): 514 mOsm/kg
- Osmolality ([3]; 1-DNJ-HCl 45 mg/mL, Sodium Citrate Buffer 50 mM): 530 mOsm/kg
- Osmolality ([3]; 1-DNJ-HCl 50 mg/mL, Sodium Citrate Buffer 20 mM): 477 mOsm/kg
- Osmolality ([3]; 1-DNJ-HCl 50 mg/mL, Sodium Citrate Buffer 25 mM): 493 mOsm/kg
- Osmolality ([3]; 1-DNJ-HCl 50 mg/mL, Sodium Citrate Buffer 30 mM): 509 mOsm/kg
- Osmolality ([3]; 1-DNJ-HCl 50 mg/mL, Sodium Citrate Buffer 35 mM): 524 mOsm/kg
- Osmolality ([3]; 1-DNJ-HCl 50 mg/mL, Sodium Citrate Buffer 40 mM): 540 mOsm/kg
- Osmolality ([3]; 1-DNJ-HCl 50 mg/mL, Sodium Citrate Buffer 45 mM): 555 mOsm/kg
- Osmolality ([3]; 1-DNJ-HCl 50 mg/mL, Sodium Citrate Buffer 50 mM): 571 mOsm/kg
- Osmolality ([3]; 1-DNJ-HCl 55 mg/mL, Sodium Citrate Buffer 20 mM): 519 mOsm/kg
- Osmolality ([3]; 1-DNJ-HCl 55 mg/mL, Sodium Citrate Buffer 25 mM): 535 mOsm/kg
- Osmolality ([3]; 1-DNJ-HCl 55 mg/mL, Sodium Citrate Buffer 30 mM): 550 mOsm/kg
- Osmolality ([3]; 1-DNJ-HCl 55 mg/mL, Sodium Citrate Buffer 35 mM): 566 mOsm/kg
- Osmolality ([3]; 1-DNJ-HCl 55 mg/mL, Sodium Citrate Buffer 40 mM): 581 mOsm/kg
- Osmolality ([3]; 1-DNJ-HCl 55 mg/mL, Sodium Citrate Buffer 45 mM): 597 mOsm/kg
- Osmolality ([3]; 1-DNJ-HCl 55 mg/mL, Sodium Citrate Buffer 50 mM): 613 mOsm/kg
- Osmolality ([3]; 1-DNJ-HCl 60 mg/mL, Sodium Citrate Buffer 20 mM): 560 mOsm/kg
- Osmolality ([3]; 1-DNJ-HCl 60 mg/mL, Sodium Citrate Buffer 25 mM): 576 mOsm/kg
- Osmolality ([3]; 1-DNJ-HCl 60 mg/mL, Sodium Citrate Buffer 30 mM): 592 mOsm/kg
- Osmolality ([3]; 1-DNJ-HCl 60 mg/mL, Sodium Citrate Buffer 35 mM): 607 mOsm/kg
- Osmolality ([3]; 1-DNJ-HCl 60 mg/mL, Sodium Citrate Buffer 40 mM): 623 mOsm/kg
- Osmolality ([3]; 1-DNJ-HCl 60 mg/mL, Sodium Citrate Buffer 45 mM): 638 mOsm/kg
- Osmolality ([3]; 1-DNJ-HCl 60 mg/mL, Sodium Citrate Buffer 50 mM): 654 mOsm/kg
Structure (SMILES): OC[C@H]1NC[C@H](O)[C@@H](O)[C@@H]1O [1-DNJ-HCl, 1-deoxynojirimycin hydrochloride]
- % RBC lysis [1, 5]: 0.1%
- Avg OD (n = 4) [1, 6]: 0.0649
- % RBC lysis [2, 5]: −0.3%
- Avg OD (n = 4) [2, 6]: 0.3535
- % RBC lysis [4, 5]: 0.0%
- Avg OD (n = 4) [4, 6]: 0.0755
